Experimental findings from patent US20240207245A1, “METHOD FOR INHIBITING METASTASIS OF TRIPLE-NEGATIVE BREAST CANCER USING ROSOXACIN” (National Yang Ming Chiao Tung University, priority 2022, published 2024) are described below.

SMILES strings stand for the structures.

Holding throughout (type): cell-based, human
The test system of assay [1] is highly metastatic breast cancer cell line (HMB cells). The assay is described as follows: Transwell Matrigel cell invasion assay, LPS-induced, HMB cells. The following applies: LPS 1 μM + quinolone antibiotic 1 μM, 24 hours, compared with control group H2 (LPS only), FIG. 1. As for the experimental part: (§1) In addition, the highly metastatic breast cancer cell line (abbreviated as HMB cells) used in the following experiments was obtained according to the following preparation processes: the MDA-MB-231 cells (2.5×10^6 cells) were injected into the mammary fat pad of a severe combined immune deficient (SCID) mice (purchased from BioLasco Taiwan Co., Ltd; 4 weeks old, with a body weight of approximately 20 g), and the triple-negative breast cancer cells metastasized to the lung of the SCID mice were harvested after 12 weeks. Next, the triple-negative breast cancer cells (2.5×10^6 cells) thus obtained were injected into the mammary fat pad of another SCID mice, and the HMB cells metastasized to the lung of the another SCID mice were harvested after 8 weeks.
The HMB cells prepared in section 1 of “General Experimental Materials” were divided into 8 groups, namely, two control groups (i.e., control groups H1 and H2), one experimental group (i.e., experimental group H), and five comparative groups (i.e., comparative groups H1 to H5). In addition, the MDA-MB-231 cells prepared in section 1 of “General Experimental Materials” were divided into three groups, namely, two control groups (i.e., control groups M1 and M2) and one experimental group (i.e., experimental group M).
Each group of the cells was seeded at a concentration of 1×10^5 cells per well into respective permeable Transwell® insert (Corning Inc.) for a 24-well plate.
Thereafter, the Transwell® inserts were placed into the 24-well plate that contained 0.6 mL of DMEM supplemented with 10% FBS in each well, followed by cultivation in a humidified incubator (37° C., 5% CO2, 95% relative humidity) for 24 hours.
Subsequently, the culture medium in each Transwell® insert was removed, and the respective Transwell® insert was washed with phosphate-buffered saline (PBS). The cells migrating through the polycarbonate membrane and attaching to the bottom side of the polycarbonate membrane were subjected to a fixation treatment with a 4% formaldehyde solution (in PBS) at room temperature for 15 minutes. Then, the non-migrating cells were removed using a cotton swab, followed by conducting staining using a 1% crystal violet solution according to techniques well-known to those skilled in the art. The number of the stained cells was counted under a Leica DMI3000 B inverted microscope (Leica Microsystems, Wetzlar, Germany) at 100× magnification, followed by analysis using Image-Pro Software (version 6.0).
The cell invasion percentage (%) of each group was calculated by substituting the thus obtained number of stained cells into the following Equation (I):
[formula] • where A=cell invasion percentage (%) • B=number of stained cells in respective group • C=number of stained cells in the control group H1 or the control group M1
(§2) The data thus obtained were analyzed according to the method described in section 1 of “General Procedures”.

Another assay has as its system MDA-MB-231 cells. Put plainly: Transwell Matrigel cell invasion assay, LPS-induced, MDA-MB-231 cells. The following applies: LPS 1 μM + rosoxacin 1 μM, 24 hours, compared with control group M2 (LPS only), FIG. 2.
Excerpt: Human breast cancer cell line MDA-MB-231 (ATCC HTB-26) was purchased from American Type Culture Collection (ATCC, Manassas, Va., USA).
The HMB cells prepared in section 1 of “General Experimental Materials” were divided into 8 groups, namely, two control groups (i.e., control groups H1 and H2), one experimental group (i.e., experimental group H), and five comparative groups (i.e., comparative groups H1 to H5). In addition, the MDA-MB-231 cells prepared in section 1 of “General Experimental Materials” were divided into three groups, namely, two control groups (i.e., control groups M1 and M2) and one experimental group (i.e., experimental group M). […]
Subsequently, the culture medium in each Transwell® insert was removed, and the respective Transwell® insert was washed with phosphate-buffered saline (PBS). […] The number of the stained cells was counted under a Leica DMI3000 B inverted microscope (Leica Microsystems, Wetzlar, Germany) at 100× magnification, followed by analysis using Image-Pro Software (version 6.0).
The cell invasion percentage (%) of each group was calculated by substituting the thus obtained number of stained cells into the following Equation (I): […]
as §2

Assay [2] relates to highly metastatic breast cancer cell line (HMB cells). The assay is described as follows: Tumor-sphere formation assay, LPS-induced, HMB cells. Particulars: LPS 1 μM + rosoxacin 1 μM, 21 days, compared with control group H2 (LPS only), FIG. 3. The protocol: as §1
The sphere formation medium used in this example was prepared by supplementing Gibco DMEM/F-12 medium with the ingredients shown in Table 3.
The HMB cells prepared in section 1 of “General Experimental Materials” were divided into three groups, namely, two control groups (i.e., control groups H1 and H2) and one experimental group (i.e., experimental group H). […]
The number of tumor spheres was counted under a Leica DMI3000 B inverted microscope (Leica Microsystems, Wetzlar, Germany) at 100× magnification.
as §2

As for `COc1c(N2CCNC(C)C2)c(F)cc2c(=O)c(C(=O)O)cn(C3CC3)c12` (stereo not shown) [Gatifloxacin], in assay [1], the cell invasion percentage result was “substantially similar to that determined in the control group H2”. `CCn1cc(C(=O)O)c(=O)c2ccc(-c3ccncc3)cc21` [rosoxacin, 1-ethyl-4-oxo-7-(4-pyridyl)-1,4-dihydroquinoline-3-carboxylic acid]: the values for the cell invasion percentage result (in assay [1]; with MDA-MB-231 cells) were “significantly lower than that determined in the control group H2” and “significantly lower than that determined in the control group M2”, respectively. The “number of tumor spheres” value in assay [2] was “significantly lower than that determined in the control group H2”. On to `C[C@H]1NCc2cc(-c3ccc4c(=O)c(C(=O)O)cn(C5CC5)c4c3OC(F)F)ccc21` [Garenoxacin], for which the cell invasion percentage entry in assay [1] is “substantially similar to that determined in the control group H2”. With `NC1CCN(c2c(F)cc3c(=O)c(C(=O)O)cn(C4CC4)c3c2Cl)C1` (stereo not shown) [Clinafloxacin], the cell invasion percentage entry in assay [1] was “significantly higher than that determined in the control group H2”.

Turning to `CCn1cc(C(=O)O)c(=O)c2cc(F)c(N3CCNCC3)cc21` [Norfloxacin], in assay [1], the cell invasion percentage entry was “substantially similar to that determined in the control group H2”.
